# In US7598223B2, “Methods for producing target cell reactive lymphocytes” (The Board of Trustees of the Leland Stanford Junior …, priority 2004, dated 2009):
# Experiments:
# [1] = biological target: tetramer+ CD8+ T cells of patient 422 (their T cell receptors); experiment: flow cytometry, tetramer staining of patient PBMC
# [2] = biological target: tetramer+ CD8+ T cells of patient 132 (their T cell receptors); experiment: flow cytometry, tetramer staining of patient PBMC
# [3] = biological target: tetramer+ CD8+ T cells of patient 476 (their T cell receptors); experiment: flow cytometry, tetramer staining of patient PBMC
# [4] = biological target: tetramer+ CD8+ T cells of patient 461 (their T cell receptors); experiment: flow cytometry, tetramer staining of patient PBMC
# [5] = biological target: tetramer+ CD8+ T cells of patient 517 (their T cell receptors); experiment: flow cytometry, tetramer staining of patient PBMC
# T2 cells [6] = experiment: Micro-cytotoxicity 51Cr-release assay with tetramer+/CD8+ cells sorted from PBMC of patient 422; type: cell-based, human; conditions: patient 422 G209-2M tetramer+ cells; peptide 1 μg/ml; 4 hours
# From the text: Six patients with T cell responses specific for MART-1 or gp100 were selected for analysis. PBMC from each patient were stained with PE-conjugated peptide-MHC tetramers: G209-2M-tet PE or M26-tet PE, and co-stained with anti-CD8 FITC and anti-CD14, -CD19, and -CD4 Cy5PE. The plots shown are gated for CD14-, CD19-, and CD4-cells. Tetramer+/CD8+ cells are boxed. […] Micro-cytotoxicity ^51Cr-release assay with tetramer+/CD8+ cells isolated by FACS from the PBMC from patient 422. Isolated cells were assayed for lysis of T2 cells treated with relevant (G209-2M, G209n) or irrelevant (CMV) peptide, or mel 526 melanoma cells. Sorted cells were combined with 250 target cells at 13:1 E:T ratios for 4 hours and supernatants were assayed for percent specific release of radio-label.
# Microcytotoxic assay: Cells were isolated directly from PBMC from patient 422 by FACS as described above. Cells were collected in microfuge tubes containing 1 ml ice cold 90% IMDM, with 10% FBS. Collected cells were washed and resuspended to 83,300 cells/ml in 90% IMDM, with 10% FBS. Targets were prepared as described above and resuspended to 8,300 cells/ml in 90% IMDM, with 10% FBS. […] Percent specific release of ^51Cr was calculated from 40 μl cell-free supernatant.
# T2 cells [7] = experiment: Determination of recognition efficiency (RE): 51Cr-release lysis of peptide-pulsed T2 targets by CTL clones; type: cell-based, human; conditions: for RE score (negative log10 of the peptide concentration required for 40% specific lysis): peptide-pulsed T2 cells, E:T ratio 10:1; for Mean RE (weighted): target cells pulsed with native peptide
# Procedure: FIGS. 3A-3J. […] All assays were performed in triplicate and each clone was assayed twice. Error bars reflect variation between two separate assays. 3a.-c. CTL clones 476.105 and 132.1 were assayed for lysis of T2 cells pulsed with 10-fold dilutions of a. native or c. heteroclitc peptide at concentrations ranging from 100 fg/ml to 100 ng/ml. b. CTL clones 476.105 and 132.1 were assayed for lysis of Malme-3M melanoma cells. d.-e. […] Endogenous (461 and 132) and vaccine-induced (517, 520, 422 and 476) CTL clones were compared for RE in lysing target cells. f-g. […] Mean RE (weighted) for each response is indicated with horizontal bars. Weighted means were based on all clones, not only those assayed, and were estimated by summing the RE of each analyzed clone multiplied by the number of total clones expressing the same V-beta in each patient.
# 2. […] The E:T ratio was based upon live T and target cells. For each T cell clone, % cytotoxicity was plotted against peptide concentration. The peptide concentration at which the curve crosses 40% cytotoxicity was defined as the RE of that clone (Marguiles, Nat. Immunol. (2001) 2:669-670.
# Similar RE assays were performed for the remaining clones from each patient selected for analysis. In order to compare REs of various CTL lines, each clone was assigned an RE score expressed as the negative log10 value of the peptide concentration required for 40% percent specific lysis at an E:T ratio of 10:1. […] We estimated the composite RE of the overall TAA-specific response (composed of a heterogeneous population of T cells) in vivo by summing the RE of each clone multiplied by its representation in the original mixture (the representation was estimated based on the proportion of TAA-specific cells expressing the same V-beta as the clone).
substance,measurement,setting,value
HLA-A*0201/G209-2M peptide tetramer-phycoerythrin (from UniProt P61769 21-119) (peptide-MHC),estimated percentage of total CD8+ cells that are also tetramer+/CD8+,[1],2.5%
same,estimated percentage of total CD8+ cells that are also tetramer+/CD8+,[2],0.22%
same,estimated percentage of total CD8+ cells that are also tetramer+/CD8+,[3],0.31%
HLA-A*0201/M26 peptide tetramer-phycoerythrin (from UniProt P61769 21-119) (peptide-MHC),estimated percentage of total CD8+ cells that are also tetramer+/CD8+,[4],0.5%
same,estimated percentage of total CD8+ cells that are also tetramer+/CD8+,[5],0.23%
"IMDQVPSFV (SEQ ID NO:4) [G209-2M, heteroclitic peptide vaccine gp100 209-217 (210M), reference compound]",Lysis of peptide-pulsed T2 cells by directly isolated tetramer+ T cells,T2 cells [6],specifically lysed
same,RE score (negative log10 of the peptide concentration required for 40% specific lysis),T2 cells [7]; CTL clone 132.1,11.2
same,RE score (negative log10 of the peptide concentration required for 40% specific lysis),T2 cells [7]; CTL clone 476.105,11.2
ITAQVPSFV (SEQ ID NO:2) [G209-3A],Activation of G209-specific target cell lysis by T cell clones,"T2 cells [7]; any concentrations, data not shown",does not activate
"ITDQVPSFV (SEQ ID NO:1) (syArtificial Sequence) [G209n, native G209n peptide; agonist]",Lysis of peptide-pulsed T2 cells by directly isolated tetramer+ T cells,T2 cells [6],specifically lysed
same,RE score (negative log10 of the peptide concentration required for 40% specific lysis),T2 cells [7]; CTL clone 132.1,11.1
same,RE score (negative log10 of the peptide concentration required for 40% specific lysis),T2 cells [7]; CTL clone 476.105,8.3
same,Mean RE (weighted),T2 cells [7]; CTL clones of patient 132 (endogenous),11.2
same,Mean RE (weighted),T2 cells [7]; CTL clones of patient 422 (vaccine-induced),9.7
same,Mean RE (weighted),T2 cells [7]; CTL clones of patient 476 (vaccine-induced),9.9
